From the supplement of paper PMC10307832

Assays:
Assay in all cases: relative viability (nuclei count vs DMSO), 5 days (fraction); higher = more cells survive
[1] = compound: NC(=O)[C@@H](CCC(F)(F)F)N(Cc1ccc(-c2ncon2)cc1F)S(=O)(=O)c1ccc(Cl)cc1 [Avagacestat] + Cc1nc(NC(=O)N2CCC[C@H]2C(N)=O)sc1-c1ccnc(C(C)(C)C(F)(F)F)c1 [Alpelisib] (partner 2 µM)
Outline: (§1)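 Values are medians from duplicate plates. Each reflects relative viability, defined as the nuclei count of treated wells over that of vehicle wells. Lung cancer cell lines in 1536-well plates were pin-tool dosed one day after seeding with one drug alone or with a fixed anchor-drug dose plus five library-drug doses (not always all listed) in √10 steps, then fixed, stained and imaged at 4× after 5 days.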

[2] = compound: NC(=O)[C@@H](CCC(F)(F)F)N(Cc1ccc(-c2ncon2)cc1F)S(=O)(=O)c1ccc(Cl)cc1 [Avagacestat] + C[C@]1(O)C[C@@H](c2nc(-c3ccc4ccc(-c5ccccc5)nc4c3)c3c(N)nccn32)C1 [Linsitinib] (partner 1 µM)
Outline: as §1

[3] = compound: NC(=O)[C@@H](CCC(F)(F)F)N(Cc1ccc(-c2ncon2)cc1F)S(=O)(=O)c1ccc(Cl)cc1 [Avagacestat] + Nc1ncn([C@H]2C[C@H](O)[C@@H](CO)O2)c(=O)n1 [Decitabine] (partner 2 µM)
Outline: as §1

[4] = compound: NC(=O)[C@@H](CCC(F)(F)F)N(Cc1ccc(-c2ncon2)cc1F)S(=O)(=O)c1ccc(Cl)cc1 [Avagacestat] + CS(=O)(=O)N1CCN(Cc2cc3nc(-c4cccc5[nH]ncc45)nc(N4CCOCC4)c3s2)CC1 [Pictilisib] (partner 1 µM)
Outline: as §1

Cell Line	relative viability ([1]; first compound 0.08 µM)	relative viability ([1]; first compound 0.253 µM)	relative viability ([1]; first compound 0.8 µM)	relative viability ([1]; first compound 2.53 µM)	relative viability ([1]; first compound 8 µM)	relative viability ([2]; first compound 0.08 µM)	relative viability ([2]; first compound 0.253 µM)	relative viability ([2]; first compound 0.8 µM)	relative viability ([2]; first compound 2.53 µM)	relative viability ([2]; first compound 8 µM)	relative viability ([3]; first compound 0.08 µM)	relative viability ([3]; first compound 0.253 µM)	relative viability ([3]; first compound 0.8 µM)	relative viability ([3]; first compound 2.53 µM)	relative viability ([3]; first compound 8 µM)	relative viability ([4]; first compound 0.08 µM)	relative viability ([4]; first compound 0.253 µM)	relative viability ([4]; first compound 0.8 µM)	relative viability ([4]; first compound 2.53 µM)	relative viability ([4]; first compound 8 µM)
SK-MES-1	0.992	0.948	0.741	0.892	0.457	1.07	1.15	1.11	1.06	0.958	0.367	0.415	0.373	0.329	0.311	0.377	0.387	0.306	0.294	0.288
NCI-H1915	1.03	1.12	1.04	1.03	1.02	1.11	1.18	1.08	1.08	1.09	0.259	0.266	0.283	0.237	0.265	0.962	1.05	0.949	1	0.93
NCI-H1437	1.22	1.25	0.921	0.894	0.849	1.65	1.14	1.19	0.955	0.721	0.643	0.668	0.654	0.598	0.628	0.388	0.399	0.417	0.399	0.366
HCC-366	0.749	0.679	0.565	0.361	0.308	1.06	0.782	0.835	0.471	0.373	0.463	0.344	0.36	0.306	0.271	0.137	0.36	0.0944	0.082	0.132
A549	1.02	0.99	0.694	0.673	0.771	0.826	0.582	0.58	0.571	0.459	0.331	0.254	0.296	0.31	0.259	0.795	0.632	0.458	0.462	0.403
NCI-H2405	0.717	0.742	0.735	0.583	0.625	0.873	0.852	1	0.627	0.737	0.758	0.703	0.692	0.673	0.684	0.432	0.465	0.473	0.329	0.377
LOU-NH91	0.712	0.724	0.779	0.608	0.738	0.966	0.883	1.01	0.786	0.929	0.868	0.812	0.84	0.807	0.79	0.491	0.475	0.559	0.515	0.498
EMC-BAC-2	0.897	0.81	0.748	0.653	0.717	0.882	0.953	0.84	0.738	0.784	1.1	1.06	1.09	1.07	1.07	0.567	0.554	0.564	0.489	0.517
NCI-H1993	0.756	0.691	0.693	0.752	0.727	0.754	0.746	0.765	0.773	0.749	0.618	0.583	0.618	0.611	0.564	0.675	0.664	0.856	0.817	0.696
BEN	1.13	1.01	0.944	0.774	1.07	0.898	1.07	1.02	0.76	0.847	0.734	0.712	0.824	0.732	0.685	0.679	0.621	0.58	0.529	0.534
NCI-H1734	0.896	0.641	0.737	0.674	0.67	1.2	0.924	0.946	0.819	0.782	0.608	0.499	0.482	0.482	0.491	0.538	0.483	0.462	0.419	0.418
NCI-H2347	1.15	1.08	1.12	0.957	1.02	1.04	0.989	1.02	0.943	0.897	0.661	0.654	0.631	0.553	0.6	0.467	0.688	0.849	0.387	0.624
NCI-H647	1.46	0.994	1.3	0.959	0.884	1.78	1.35	1.12	1.16	1.19	0.459	0.465	0.42	0.374	0.377	0.487	0.504	0.459	0.41	0.372
EPLC-272H	1.05	1	1.02	1.09	0.865	1.4	1.2	1.4	1.32	0.933	0.421	0.435	0.4	0.322	0.352	0.325	0.273	0.346	0.371	0.241
LCLC-97TM1	0.265	0.224	0.185	0.186	0.218	0.161	0.212	0.155	0.151	0.163	0.25	0.214	0.229	0.217	0.203	0.184	0.138	0.139	0.181	0.145
NCI-H3122	0.903	0.966	0.802	0.813	0.739	1.05	1.02	0.989	1.01	1	0.513	0.428	0.445	0.402	0.37	0.723	0.751	0.748	0.715	0.607
